Values after ≈ are worked out from the molar mass of the structure shown. Where two headings read alike, the source gives them in different places.
Legend:
[1] = Thermodynamic Equilibrium Aqueous Solubility Assay; assay type: physicochemical; conditions: thermodynamic from solid
Procedure: Standards Preparation: The calibration standard was prepared by accurately weighing 0.5-0.7 mg of sample in 5 ml of methanol. If the material was not fully soluble in methanol, other solvents such as DMSO or mixed solvents were used.
Test Sample Preparation: An excess amount of powder prodrug was equilibrated with 1 mL of buffer (50 mM potassium phosphate, pH 6.5 and 50 mM sodium acetate, pH 4.0) in a 2 mL glass vial. The solution was sonicated and vortexed for ˜30 seconds. The vials were shaken at 300 rpm at room temperature for 24 hrs. The exact incubation time for a specific prodrug was based on the prior aqueous stability data. If the compound was stable in the buffer up to 24 hrs, then the solubility was measured after 24 hrs, otherwise kinetic solubility data was reported. The final saturated solution was then transferred to a 1.5 mL Eppendorf tube and centrifuged for ˜2 min. at 10000 rpms. The supernatant from the saturated solution was transferred to a glass HPLC vial and the solubility was analyzed by HPLC using a four point calibration curve.

[2] = Solution Stability Assay; assay type: physicochemical
Procedure: Acetonitrile Stock Solution: Acetonitrile Stock Solution of the prodrug was prepared by dissolving 1.5-2.0 mg of weighted compound in 5.0 mL of acetonitrile in a 5 mL volumetric flask.
pH 6.5 Buffer Working Solution: A pH 6.5 Buffer Working Solution of drug was prepared by adding 1.5 mL of the Acetonitrile Stock Solution to 3.5 mL of stability buffer (50 mM potassium phosphate, pH 6.5) in a 10 mL vial, and mixing. Using a 3 mL syringe, ˜3 mL of solution was withdrawn and filtered using the Gelman 0.45 μm syringe filter into a clean 1.5 mL LC vial. This filtered solution will was used to evaluate the prodrug degradation throughout the course of the study. Target concentration: 90-120 μg/mL (70% Aqueous: 30% Acetonitrile)
pH 4.0 Acidic Working Solution: A pH 4.0 Working Solution of drug was prepared by adding 1.5 mL of the Acetonitrile Stock Solution to 3.5 mL of stability buffer (50 mM sodium acetate, pH 4.0) in a 10 mL vial and mixing. Using a 3 mL syringe, ˜3 mL of solution was withdrawn and filtered using the Gelman 0.45 μm syringe filter into a clean 1.5 mL LC vial. This filtered solution was used to evaluate the prodrug degradation throughout the course of the study. Target concentration: 90-120 μg/mL (70% Aqueous: 30% Acetonitrile)
Experimental Methods: Following the sample preparation procedure described above a single sample (n=1) was prepared for each pH condition. The samples were then placed in an HPLC autosampler maintained at 37° C. and samples were analyzed over a 24 h period. Prodrug remaining (%) was reported relative to the initial peak area (t=0 h). In cases where a conversion to parent half-life could be calculated, a t1/2 was generated. Confirmation of the conversion to parent from the prodrug was obtained by LCMS and HPLC analysis of the final timepoint samples.
Typical LC parameters are shown below: • HPLC System: HP1100 Series, Hewlett Packard., Heated autosampler • Analytical column: Synergi 4 u Hydro C18, 4.6 mm×5.0 cm, PHENOMENEX® • Column temperature: 40° C. • Autosampler temp: 37° C. • Flow rate: 1.0 mL/min • Injection Volume: 10 μL • Mobile Phase: A: Acetonitrile • B: 0.1% Phosphoric acid in water • Run Time: 14.0 minutes Typical LCMS parameters are shown below: • LC-MS System: Surveyor HPLC system, ThermoFinnigan LCQ Deca XP Max (Ion trap) • Analytical column: Synergi 4 u Hydro C18, 4.6 mm×5.0 cm, PHENOMENEX® • Column temperature: 40° C. • Autosampler temp: 22° C. • Flow rate: 1.0 mL/min • Injection Volume: 5 μL • Mobile Phase: A: 95% Acetonitrile/5% 20 mM Ammonium Acetate • B: 5% Acetonitrile/95% 20 mM Ammonium Acetate LCQ Parameters: • Sheath Flow Rate: 81.64 • Aux/Sweep Flow Rate: 19.01 • Current (uA): 10.89 • Voltage (kV): 5.00 • Capillary (C): 348.10 • Capillary Voltage (V): 30.44

[3] = potassium phosphate buffer, pH 6.5, aqueous buffer, read-out: Solubility (mg/mL) pH 6.5
[4] = sodium acetate buffer, pH 4, aqueous buffer, read-out: Solubility (mg/mL) pH 4.0
[5] = potassium phosphate buffer with 30% acetonitrile, pH 6.5, read-out: Stability (t1/2, h) pH 6.5 (converted)
[6] = sodium acetate buffer with 30% acetonitrile, pH 4, read-out: Stability (t1/2, h) pH 4.0 (converted)

SMILES	solubility at 24 h [1, 3] [mg/mL]	solubility at 24 h [1, 4] [mg/mL]	half-life [2, 5] [h]	half-life [2, 6] [h]
NC(=O)[C@@H](CCC(F)(F)F)[C@@H](CCC(F)(F)F)C(=O)N[C@H]1N=C(c2ccccc2)c2ccccc2N(COC(=O)Cc2ccc(OP(=O)(O)O)cc2)C1=O [Example 1, ((3S)-3-(((2R,3S)-3-Carbamoyl-6,6,6-trifluoro-2-(3,3,3-trifluoropropyl)hexanoyl)amino)-2-oxo-5-phenyl-2,3-dihydro-1H-1,4-benzodiazepin-1-yl)methyl (4-(phosphonooxy)phenyl)acetate]	> 1.22	0.01 (≈ 12.7 µM)	> 500	> 500
NC(=O)[C@@H](CCC(F)(F)F)[C@@H](CCC(F)(F)F)C(=O)N[C@H]1N=C(c2ccccc2)c2ccccc2N(COC(=O)c2ccc(COP(=O)(O)O)cc2)C1=O [Example 2, ((3S)-3-(((2R,3S)-3-Carbamoyl-6,6,6-trifluoro-2-(3,3,3-trifluoropropyl)hexanoyl)amino)-2-oxo-5-phenyl-2,3-dihydro-1H-1,4-benzodiazepin-1-yl)methyl 4-((phosphonooxy)methyl)benzoate]	0.42 (≈ 534 µM)	0.99 (≈ 1260 µM)	> 500	> 500
Cc1cc(C)c(C(C)(C)CC(=O)OCN2C(=O)[C@@H](NC(=O)[C@H](CCC(F)(F)F)[C@H](CCC(F)(F)F)C(N)=O)N=C(c3ccccc3)c3ccccc32)c(OP(=O)(O)O)c1 [Example 3, (3-(((2R,3S)-3-Carbamoyl-6,6,6-trifluoro-2-(3,3,3-trifluoropropyl)hexanoyl)amino)-2-oxo-5-phenyl-2,3-dihydro-1H-1,4-benzodiazepin-1-yl)methyl 3-(2,4-dimethyl-6-(phosphonooxy)phenyl)-3-methylbutanoate]	> 0.52	> 0.28	> 500	> 500
CC(C)(N)C(=O)OCN1C(=O)[C@@H](NC(=O)[C@H](CCC(F)(F)F)[C@H](CCC(F)(F)F)C(N)=O)N=C(c2ccccc2)c2ccccc21 [Example 4, ((3S)-3-(((2R,3S)-3-Carbamoyl-6,6,6-trifluoro-2-(3,3,3-trifluoropropyl)hexanoyl)amino)-2-oxo-5-phenyl-2,3-dihydro-1H-1,4-benzodiazepin-1-yl)methyl 2-methylalaninate]	> 1.07	> 3.23	8	64
C[C@H](N)C(=O)OCN1C(=O)[C@@H](NC(=O)[C@H](CCC(F)(F)F)[C@H](CCC(F)(F)F)C(N)=O)N=C(c2ccccc2)c2ccccc21 [Example 5, ((3S)-3-(((2R,3S)-3-Carbamoyl-6,6,6-trifluoro-2-(3,3,3-trifluoropropyl)hexanoyl)amino)-2-oxo-5-phenyl-2,3-dihydro-1H-1,4-benzodiazepin-1-yl)methyl L-alaninate]	3.2 (≈ 4970 µM)	2.3 (≈ 3570 µM)	5	92
CC(C)[C@H](N)C(=O)OCN1C(=O)[C@@H](NC(=O)[C@H](CCC(F)(F)F)[C@H](CCC(F)(F)F)C(N)=O)N=C(c2ccccc2)c2ccccc21 [Example 6, ((3S)-3-(((2R,3S)-3-Carbamoyl-6,6,6-trifluoro-2-(3,3,3-trifluoropropyl)hexanoyl)amino)-2-oxo-5-phenyl-2,3-dihydro-1H-1,4-benzodiazepin-1-yl)methyl L-valinate]	0.5 (≈ 744 µM)	0.3 (≈ 447 µM)	41	> 500
NC(=O)[C@@H](CCC(F)(F)F)[C@@H](CCC(F)(F)F)C(=O)N[C@H]1N=C(c2ccccc2)c2ccccc2N(COC(=O)C2(N)CC2)C1=O [Example 7, ((3S)-3-(((2R,3S)-3-Carbamoyl-6,6,6-trifluoro-2-(3,3,3-trifluoropropyl)hexanoyl)amino)-2-oxo-5-phenyl-2,3-dihydro-1H-1,4-benzodiazepin-1-yl)methyl 1-aminocyclopropanecarboxylate]	2.09 (≈ 3190 µM)	1.78 (≈ 2720 µM)	> 500	> 500
NCCSNC(=O)[C@@H](CCC(F)(F)F)[C@@H](CCC(F)(F)F)C(=O)N[C@H]1N=C(c2ccccc2)c2ccccc2NC1=O [Example 8, (2S,3R)—N-((2-Aminoethyl)sulfanyl)-N′-((3S)-2-oxo-5-phenyl-2,3-dihydro-1H-1,4-benzodiazepin-3-yl)-2,3-bis(3,3,3-trifluoropropyl)succinamide]	> 0.47	0.52 (≈ 842 µM)	334	> 500
N[C@@H](CSNC(=O)[C@@H](CCC(F)(F)F)[C@@H](CCC(F)(F)F)C(=O)N[C@H]1N=C(c2ccccc2)c2ccccc2NC1=O)C(=O)O [Example 9, S-(((2S,3R)-6,6,6-Trifluoro-3-(((3S)-2-oxo-5-phenyl-2,3-dihydro-1H-1,4-benzodiazepin-3-yl)carbamoyl)-2-(3,3,3-trifluoropropyl)hexanoyl)amino)-L-cysteine]	0.64 (≈ 967 µM)	0.75 (≈ 1130 µM)	58	335
CC(C)CNCNC(=O)[C@@H](CCC(F)(F)F)[C@@H](CCC(F)(F)F)C(=O)N[C@H]1N=C(c2ccccc2)c2ccccc2N(C)C1=O [Example 10, (2S,3R)—N-((Isobutylamino)methyl)-N′-((3S)-1-methyl-2-oxo-5-phenyl-2,3-dihydro-1H-1,4-benzodiazepin-3-yl)-2,3-bis(3,3,3-trifluoropropyl)succinamide]	< 0.001	> 0.27	32	
CN1C(=O)[C@@H](NC(=O)[C@H](CCC(F)(F)F)[C@H](CCC(F)(F)F)C(=O)NSCCN)N=C(c2ccccc2)c2ccccc21 [Example 11, (2S,3R)—N-((2-Aminoethyl)sulfanyl)-N′-((3S)-1-methyl-2-oxo-5-phenyl-2,3-dihydro-1H-1,4-benzodiazepin-3-yl)-2,3-bis(3,3,3-trifluoropropyl)succinamide]	> 3.4	> 2.67	29	215
CN(C)CCSNC(=O)[C@@H](CCC(F)(F)F)[C@@H](CCC(F)(F)F)C(=O)N[C@H]1N=C(c2ccccc2)c2ccccc2N(C)C1=O [Example 13, (2S,3R)—N-((2-(Dimethylamino)ethyl)sulfanyl)-N′-((3S)-1-methyl-2-oxo-5-phenyl-2,3-dihydro-1H-1,4-benzodiazepin-3-yl)-2,3-bis(3,3,3-trifluoropropyl)succinamide]	0.94 (≈ 1420 µM)	> 0.92	108	334
COC(=O)[C@@H](N)CSNC(=O)[C@@H](CCC(F)(F)F)[C@@H](CCC(F)(F)F)C(=O)N[C@H]1N=C(c2ccccc2)c2ccccc2N(C)C1=O [Example 14, Methyl S-(((2S,3R)-6,6,6-trifluoro-3-(((3S)-1-methyl-2-oxo-5-phenyl-2,3-dihydro-1H-1,4-benzodiazepin-3-yl)carbamoyl)-2-(3,3,3-trifluoropropyl)hexanoyl)amino)-L-cysteinate]	0.02 (≈ 29 µM)	0.42 (≈ 609 µM)	44	73

Source: US9273075B2, “Prodrugs of 1,4-benzodiazepinone compounds” (BRISTOL-MYERS SQUIBB COMPANY, priority 2012, dated 2016)
